Assay results reported in patent US11208671B2, “Recombinant cell and method of producing itaconic acid” (City University of Hong Kong, priority 2019, dated 2021).

System: Methylorubrum extorquens AM1
Experiment: Tolerance of the strain to the inhibitory effect of itaconic acid
Assay type: cell-based
Details: itaconic acid 10 mM

## C=C(CC(=O)O)C(=O)O [itaconic acid]
  Tolerance to inhibitory effect of itaconic acid: highly tolerant
